Source: ChEMBL document CHEMBL4020810, “Janus-Associated Kinase 1 (JAK1) Inhibitors as Potential Treatment for Immune Disorders” (ACS Med Chem Lett, 2017)

Experiments:
[1] = target: T1, Tyrosine-protein kinase JAK1 (Homo sapiens, UniProt P23458); assay: Inhibition of N-terminal GST fused human recombinant JAK1 (866 to 1154 amino acids) expressed in insect cells using ATP and peptide substrate (FITC-C6-KKHTDDGYMPMSPGVA-NH2
[2] = target: T2, Tyrosine-protein kinase JAK3 (Homo sapiens, UniProt P52333); assay: Inhibition of N-terminal GST fused recombinant JAK3 (781 to 1124 amino acids) (unknown origin) expressed in insect cells using ATP and peptide substrate (5FAM-GEEPLYWSFPAKKK-NH2
T2 sequence (P52333 whole entry): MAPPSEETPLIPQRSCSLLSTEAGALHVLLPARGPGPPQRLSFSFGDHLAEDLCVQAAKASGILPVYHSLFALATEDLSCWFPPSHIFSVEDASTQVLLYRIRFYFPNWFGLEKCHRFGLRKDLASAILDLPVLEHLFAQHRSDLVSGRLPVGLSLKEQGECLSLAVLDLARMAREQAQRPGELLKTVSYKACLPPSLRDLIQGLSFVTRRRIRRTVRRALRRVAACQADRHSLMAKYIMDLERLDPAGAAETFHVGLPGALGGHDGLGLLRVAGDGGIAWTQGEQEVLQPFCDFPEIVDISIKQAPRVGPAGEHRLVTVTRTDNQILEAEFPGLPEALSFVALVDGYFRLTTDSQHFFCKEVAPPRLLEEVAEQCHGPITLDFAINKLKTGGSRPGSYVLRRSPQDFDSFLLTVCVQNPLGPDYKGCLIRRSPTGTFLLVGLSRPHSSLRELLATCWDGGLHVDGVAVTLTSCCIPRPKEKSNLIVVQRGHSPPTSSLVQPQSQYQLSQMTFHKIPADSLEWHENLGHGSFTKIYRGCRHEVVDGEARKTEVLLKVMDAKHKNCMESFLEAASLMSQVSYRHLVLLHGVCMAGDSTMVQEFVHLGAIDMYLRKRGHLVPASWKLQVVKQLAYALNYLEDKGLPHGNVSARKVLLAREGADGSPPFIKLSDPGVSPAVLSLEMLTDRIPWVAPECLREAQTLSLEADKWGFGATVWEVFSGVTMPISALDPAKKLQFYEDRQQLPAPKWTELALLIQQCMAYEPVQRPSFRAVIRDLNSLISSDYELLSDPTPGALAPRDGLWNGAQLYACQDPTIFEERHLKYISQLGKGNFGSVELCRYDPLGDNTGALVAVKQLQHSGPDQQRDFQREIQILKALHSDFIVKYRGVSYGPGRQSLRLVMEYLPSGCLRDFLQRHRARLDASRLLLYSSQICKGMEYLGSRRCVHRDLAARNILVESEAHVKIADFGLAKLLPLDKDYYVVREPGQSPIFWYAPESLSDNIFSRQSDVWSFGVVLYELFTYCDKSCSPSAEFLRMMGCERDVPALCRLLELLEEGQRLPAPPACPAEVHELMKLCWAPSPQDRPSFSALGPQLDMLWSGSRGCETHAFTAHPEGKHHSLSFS

[3] = target: T1, Tyrosine-protein kinase JAK1; assay: Inhibition of JAK1 in human NCI-H1975 cells assessed as reduction in STAT3 phosphorylation incubated for 2 hrs; assay type: cell-based

T1 sequence (P23458 whole entry, the tested form may be a part): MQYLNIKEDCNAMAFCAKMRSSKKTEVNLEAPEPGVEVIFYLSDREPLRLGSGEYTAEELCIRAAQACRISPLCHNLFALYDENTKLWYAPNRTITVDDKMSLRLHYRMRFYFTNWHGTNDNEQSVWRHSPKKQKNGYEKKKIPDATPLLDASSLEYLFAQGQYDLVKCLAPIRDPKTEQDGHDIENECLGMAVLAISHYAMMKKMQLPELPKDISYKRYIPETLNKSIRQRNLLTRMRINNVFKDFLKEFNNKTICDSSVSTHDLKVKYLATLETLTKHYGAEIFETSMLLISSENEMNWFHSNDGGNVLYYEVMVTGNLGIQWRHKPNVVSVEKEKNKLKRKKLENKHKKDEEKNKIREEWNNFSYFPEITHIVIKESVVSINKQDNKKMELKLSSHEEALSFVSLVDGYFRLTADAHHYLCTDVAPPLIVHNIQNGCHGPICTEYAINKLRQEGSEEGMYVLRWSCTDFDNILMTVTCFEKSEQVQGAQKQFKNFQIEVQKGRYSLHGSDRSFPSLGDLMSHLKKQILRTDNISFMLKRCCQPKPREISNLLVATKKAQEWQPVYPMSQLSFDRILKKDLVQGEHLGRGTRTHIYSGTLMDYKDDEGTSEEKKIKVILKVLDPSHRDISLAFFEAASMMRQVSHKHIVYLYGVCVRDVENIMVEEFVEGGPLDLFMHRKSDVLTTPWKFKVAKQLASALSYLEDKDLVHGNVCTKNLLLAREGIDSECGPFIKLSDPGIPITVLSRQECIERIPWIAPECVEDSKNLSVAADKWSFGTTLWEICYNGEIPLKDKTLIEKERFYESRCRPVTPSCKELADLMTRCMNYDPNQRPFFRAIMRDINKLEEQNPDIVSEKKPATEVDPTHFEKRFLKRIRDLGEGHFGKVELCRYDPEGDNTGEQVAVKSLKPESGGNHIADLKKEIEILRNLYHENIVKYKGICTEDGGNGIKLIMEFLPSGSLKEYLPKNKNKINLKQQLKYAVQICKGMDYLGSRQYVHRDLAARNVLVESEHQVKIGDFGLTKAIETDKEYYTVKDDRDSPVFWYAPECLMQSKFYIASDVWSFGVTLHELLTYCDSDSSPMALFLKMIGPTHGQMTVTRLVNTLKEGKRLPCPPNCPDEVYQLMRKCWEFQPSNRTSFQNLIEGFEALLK

Row | SMILES | IC50 [1] [nM] | IC50 [2] [nM] | IC50 [3] [nM]
1 | CC[C@H](C(=O)Nc1cccc2c(-c3nc(Nc4cn(C)nc4C)ncc3F)c[nH]c12)N1CCN(C)CC1 | < 4 | > 30000 | 75.1
2 | CCOc1nn(C)cc1Nc1ncc(C)c(-c2c[nH]c3c(NC(=O)[C@@H](CC)N4CCN(C)CC4)cccc23)n1 | < 6 | > 30000 | 104
3 | COC[C@H](C(=O)Nc1cccc2c(-c3nc(Nc4cn(C)nc4C)ncc3F)c[nH]c12)N1CCN(C)CC1 | < 3 | > 30000 | 56.6
4 | COc1nn(C)cc1Nc1ncc(Cl)c(-c2c[nH]c3c(NC(=O)[C@@H](C)N4CCN(C)CC4)cccc23)n1 |  |  | 57.9
5 | COc1nn(C)cc1Nc1nccc(-c2c[nH]c3c(NC(=O)[C@@H](C)N4CCN(C)C[C@@H]4C)cccc23)n1 |  |  | 643
6 | CCOc1nn(C)cc1Nc1ncc(F)c(-c2c[nH]c3c(NC(=O)[C@H](C)N4CCN(C)C[C@@H]4C)cccc23)n1 |  |  | > 3000
